The results in this text go back to patent publication US4791139A, “Diphenyl ether derivatives and their use as insecticides” (Imperial Chemical Industries PLC, priority 1986, dated 1988).

The mortality is the percentage killed.

Format in all cases: in vivo
For data set [1], the system named is Nilaparvata lugens (brown plant hopper - nymphs). As to the kind of experiment: Contact test, brown plant hopper - nymphs (NL), Rice plant. As to conditions: 72 h, 3 days, read-out: NL grading of mortality. In short, it runs like this:
(§1)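 Insects placed on host plant or food medium; medium and/or insects treated with aqueous preparations of 100 to 500 ppm Product by weight, made from acetone solutions diluted in water with 0.1% wetting agent. Mortality was then assessed, usually after one to seven days.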

Data set [2] has as its system Diabrotica balteata (rootworm larvae). The data set is described as follows: Residual test, rootworm larvae (DB), Filter paper/maize seed. Particulars: 72 h, 3 days, read-out: DB grading of mortality. In short, it runs like this: as §1
The test system of data set [3] is Musca domestica (houseflies - adults). The data set is described as follows: Contact test, houseflies - adults (MD), Cotton wool/sugar. As to conditions: 24 h, 1 day, read-out: MD grading of mortality. In short, it runs like this: as §1
The test system of data set [4] is carp. The data set is described as follows: Mortality to carp. As to conditions: after 48 hours at 10 parts per million. The source says: The compounds according to formula I and compositions comprising them have shown themselves to be particularly useful in controlling pests of maize and rice such as Chilo (stem borers), Nilaparvata and Nephotettix (plant hoppers) as well as lepidopteran pests of cotton, for example Heliothis spp. This activity is combined with a low level of hazard to aquatic organisms, eg. fish, which renders the compounds particularly suitable for use in aquatic environments, such as for the control of insect pests of paddy rice and for the control of larvae of insect vectors of disease, for example mosquitos. Thus, for example, compound 2 in Table I caused no mortality to carp after 48 hours at a concentration of 10 parts per million. […] (spider mites).

In data set [5] the test system is Chilo partellus (Maize stemborer - larvae). The data set is described as follows: Residual test, Maize stemborer - larvae (CP), Oilseed rape. Particulars: 72 h, 3 days, read-out: CP grading of mortality.
In data set [6] the test system is Musca domestica (houseflies - adults). The data set is described as follows: Knockdown test, houseflies - adults (MD/KD), Cotton wool/sugar. Particulars: 4 hours, read-out: MD/KD grading of knockdown. In short, it runs like this:
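Product was dissolved in acetone and diluted with water containing 0.1% wetting agent to 100–500 ppm. The flies and/or their food medium were treated with the preparation. Mortality was scored 1–7 days after treatment, with an additional knockdown assessment for houseflies.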

Data set [7] concerns Blattella germanica (cockroach nymphs). The data set is described as follows: Residual test, cockroach nymphs (BG), Plastic pot. As to conditions: 72 h, 3 days, read-out: BG grading of mortality. In short, it runs like this:
as §1

Data set [8] has as its system Myzus persicae (aphids). The data set is described as follows: Contact test, aphids (MP), Chinese Cabbage leaf. As to conditions: 72 h, 3 days, read-out: MP grading of mortality. In short, it runs like this:
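Aphids on a host plant and/or the plant itself were treated with 100–500 ppm of product, applied from acetone diluted in water containing 0.1% SYNPERONIC NX wetting agent. Mortality was scored usually one to seven days after treatment.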

In data set [9] the test system is Heliothis virescens (tobacco budworm - larvae). As to the kind of experiment: Residual test, tobacco budworm - larvae (HV), Cotton leaf. As to conditions: 72 h, read-out: HV grading of mortality. In short, it runs like this: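 Products applied as acetone solutions diluted in water with 0.1% wetting agent, at 100–500 ppm; pests on host plant or food, with pests and/or medium treated. Mortality or knockdown scored 1–7 days after treatment and graded A (80–100%), B (50–79%) or C (<50%).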

Data set [10] concerns Meloidogyne incognita (Tomato root knot eelworm - larvae). As to the kind of experiment: Residual test, Tomato root knot eelworm - larvae (MI), Semi in-vitro. Particulars: 168 h, application rate is half that recorded, 7 days, read-out: MI grading of mortality; for mortality at 125 µg/mL: rate 250 ppm.
The subject of data set [11] is Nephotettix cincticeps. The data set is described as follows: Contact test, leaf hopper in place of Nilaparvata lugens (NL**), Rice plant. Particulars: 72 h, 3 days, read-out: NL** grading of mortality (Nephotettix cincticeps). On the procedure:
The activity of the Product was determined using a variety of insect pests. The Product was used in the form of liquid preparations containing from 100 to 500 parts per million (ppm) by weight of the Product. The preparations were made by dissolving the Product in acetone and diluting the solutions with water containing 0.1% by weight of a wetting agent sold under the trade name "SYNPERONIC" NX until the liquid preparations contained the required concentration of the Product. "SYNPERONIC" is a Registered Trade Mark.
The test procedure adopted with regard to each pest was basically the same and comprised supporting a number of the pests on a medium which was usually a host plant or a foodstuff on which the pests feed, and treating either or both the pests and the medium with the preparations. The mortality of the pests was then assessed at periods usually varying from one to seven days after the treatment.
The results of the tests are given in Table III for each of the Products, at the rate in parts per million given in the second column as a grading of mortality designated as A, B or C wherein A indicates 80-100% mortality or knockdown (70-100% for Meloidogyne incognita), B indicates 50-79% mortality knockdown or knockdown (50-69% for Meloidogyne incognita) and C indicates less than 50% mortality or knockdown. […]

Data set [12] concerns Spodoptera exigua (lesser army worm - larvae). As to the kind of experiment: Residual test, lesser army worm - larvae (SP), Cotton leaf. As to conditions: 72 h, 3 days, read-out: SP grading of mortality. In short, it runs like this:
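Compound dissolved in acetone and diluted in water with 0.1% Synperonic NX wetting agent to 100–500 ppm. Pests on host plant or food, with pests and/or medium treated. Mortality assessed 1–7 days after treatment and graded A (80–100%), B (50–79%) or C (<50%).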

For data set [13], the system named is Tetranychus urticae (spider mites - adult). The data set is described as follows: Contact test, spider mites - adult (TUa), French bean leaf. Particulars: 72 h, 3 days, read-out: TUA grading of mortality. In short, it runs like this: as §1
The test system of data set [14] is Tetranychus urticae (spider mites - ova). As to the kind of experiment: Contact test, spider mites - ova (TUe), French bean leaf. Particulars: 144 h, 250 ppm, 6 days, read-out: TUE grading of mortality. In short, it runs like this: as §1

The structures appear in SMILES notation. Where only a bound is given, the exact number is not on record here.

Regarding `CCOc1ccc(C(CCCc2cccc(Oc3ccccc3)c2)C(F)(F)F)cc1` (racemic) [Compound 2, 2-(4-ethoxyphenyl)-5-(3-phenoxyphenyl)-1,1,1-trifluoropentane], the mortality at 500 ppm in data set [1] (500 ppm), in data set [2], in data set [3], in data set [5] (500 ppm), in data set [7] and in data set [8] was 80 to 100% throughout. The mortality at 500 ppm in [9] is 80 to 100%. Moreover, the mortality to carp result in data set [4] is on record as “no mortality”. Besides, the pest or weed control at 500 ppm in data set [6] fell in the range of 80 to 100%. Besides, the mortality at 250 µg/mL in [10] (rate column 500 ppm) is less than 50%.

Consider `FC(F)(F)COc1ccc(C(CCCc2cccc(Oc3ccccc3)c2)C(F)(F)F)cc1` (racemic) [Compound 73, 1,1,1-trifluoro-2-[4-(2,2,2-trifluoroethoxy)phenyl]-5-(3-phenoxyphenyl)pentane], for which the mortality at 250 ppm in [11] (250 ppm), in [12] (250 ppm), in data set [2], in [3], in [13] and in data set [7] was 80 to 100% each time. Moreover, the mortality at 250 ppm in [8] and in data set [9] was 80 to 100% throughout. For the same molecule, the pest or weed control at 250 ppm in [6] was in the range of 80 to 100%.

As to `Fc1ccc(CCC=C(c2ccc(OC(F)(F)F)cc2)C(F)F)cc1Oc1ccccc1` [Compound 26, 1,1-Difluoro-2-(4-trifluoromethoxyphenyl)-5-(4-fluoro-3-phenoxyphenyl)pent-2-ene], the mortality at 500 ppm in data set [11] (500 ppm) lay within 80 to 100%; in [12] (500 ppm), 80 to 100%; in data set [2] it was 50 to 79%; in [3] it was 80 to 100%; in data set [13] (500 ppm) it was 80 to 100%; in [7], 80 to 100%. The mortality at 500 ppm in data set [8] and in [9] was 80 to 100% each time. In addition, the pest or weed control at 500 ppm in [6] is 80 to 100%.

For the molecule `CCOc1ccc(/C(=C\C=C\c2ccc(F)c(Oc3ccccc3)c2)C(F)(F)F)cc1` [Compound 36, 1,1,1-trifluoro-2-(4-ethoxyphenyl)-5-(4-fluoro-3-phenoxyphenyl)penta-2,4-diene], the mortality at 250 ppm was 80 to 100% in [1]; 80 to 100% in data set [2]; 80 to 100% in data set [3]; less than 50% in data set [13]; less than 50% in data set [14]; 80 to 100% in data set [5]. Also, the mortality at 250 ppm in [7], in data set [8] and in [9] was 80 to 100% in each case. In addition, the pest or weed control at 250 ppm in data set [6] was in the range of 80 to 100%. For the same molecule, the mortality at 125 µg/mL in data set [10] lay within 50 to 69%.

Take `CCOc1ccc(/C(=C\C=C/c2ccc(F)c(Oc3ccccc3)c2)C(F)(F)F)cc1` [Compound 37, 1,1,1-trifluoro-2-(4-ethoxyphenyl)-5-(4-fluoro-3-phenoxyphenyl)penta-2,4-diene]: the mortality at 250 ppm in data set [1], in data set [2], in data set [3], in data set [13], in data set [14] and in [5] was less than 50% throughout. The mortality at 250 ppm in data set [7] is 50 to 79%; in data set [8], less than 50%; in data set [9], less than 50%. The pest or weed control at 250 ppm in data set [6] is less than 50%. In data set [10], the mortality at 125 µg/mL was less than 50%.
